The values that follow come from US20260042827A1, “ANTI-WT1 ANTIGEN-BINDING PROTEINS AND USES THEREOF” (UNIVERSITY HEALTH NETWORK, priority 2022, published 2026).

The target of one assay is T1, DP2 (Homo sapiens, UniProt P04440+P20036, A65V/A84D/A85E/K98E).
T1 sequence (P20036 29-260): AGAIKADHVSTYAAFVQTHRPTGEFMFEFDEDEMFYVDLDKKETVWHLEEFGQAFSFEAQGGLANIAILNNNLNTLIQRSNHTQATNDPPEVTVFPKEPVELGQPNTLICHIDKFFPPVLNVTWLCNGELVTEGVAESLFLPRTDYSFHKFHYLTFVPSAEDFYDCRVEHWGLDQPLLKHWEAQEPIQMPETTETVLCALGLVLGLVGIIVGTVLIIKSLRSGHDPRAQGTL
T1 sequence (P04440 30-258 A65V/A84D/A85E/K98E): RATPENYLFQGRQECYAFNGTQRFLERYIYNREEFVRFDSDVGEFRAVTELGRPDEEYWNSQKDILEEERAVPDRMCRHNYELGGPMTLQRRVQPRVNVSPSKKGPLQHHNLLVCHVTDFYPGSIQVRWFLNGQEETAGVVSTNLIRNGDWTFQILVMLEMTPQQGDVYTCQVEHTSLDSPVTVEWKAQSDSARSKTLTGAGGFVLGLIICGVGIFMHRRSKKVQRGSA
Description: T2 cell-based competitive binding assay. Particulars: T2 cells transduced with DP2; reference peptide Oxy271-287.

For the next assay, the target named is T2, DP4 (Homo sapiens, UniProt P04440+P20036).
T2 construct: expressed in transfected cells; host or cells: T2 cells, retrovirally transduced (pMX vector)
T2 sequence (P20036 29-260): T1 sequence (P20036 29-260)
T2 sequence (P04440 30-258): T1 sequence (P04440 30-258 A65V/A84D/A85E/K98E) with V36A, D55A, E56A, E69K
As to the kind of experiment: T2 cell-based competitive binding assay. Particulars: T2 cells transduced with DP4; reference peptide Oxy271-287.

Positions count from the first letter of the chain named.

Take “CMTWNQMNL [WT1235-243, known HLA-A2 restricted peptide, negative control, reference compound]”: the “IC50 value, displacement of reference peptide” value at DP2 and on DP4 was “failed to displace reference peptide at any tested concentration” in each case.
Regarding PGCNKRYFKLSHLQMHSRKHT [WT1328-348], the “IC50 value, displacement of reference peptide” value on DP2 and at DP4 was “comparable to TT947-967” throughout.
